Test results: patent US8927717B1, “Thiochromeno[2,3-c]quinolin-12-one derivatives, preparation method and application thereof” (National Defense Medical Center, priority 2014, dated 2015)

Columns and labels:
Type in all cases: cell-based
OVCAR-8 = details: OVCAR-8
A498 = details: A498
SW-620 = details: SW-620
HS 578T = details: HS 578T
SF-295 = details: SF-295
MDA-MB-486 = details: MDA-MB-486
MDA-MB-435 = details: MDA-MB-435
NCI-H522 = details: NCI-H522
HT29 = details: HT29
BT-549 = details: BT-549
DU-145 = details: DU-145
SN12C = details: SN12C
NCI-H460 = details: NCI-H460
SNB-19 = details: SNB-19
UACC-62 = details: UACC-62
CCRF-CEM = details: CCRF-CEM
MCF7 = details: MCF7
TK-10 = details: TK-10
HCT-15 = details: HCT-15
T-47D = details: T-47D
786-0 = details: 786-0
PC-3 = details: PC-3
M14 = details: M14
LOX IMVI = details: LOX IMVI, five dose
60 cancer cell lines = assay: NCI 60-cell screen, SRB, whole panel (mean, delta, range)
A549/ATCC = details: A549/ATCC
UO-31 = details: UO-31
SK-MEL-28 = details: SK-MEL-28
SNB-75 = details: SNB-75
MALME-3M = details: MALME-3M
RXF 393 = details: RXF 393; 10^−5 molar
HL-60(TB) = details: HL-60(TB); 10^−5 molar
MOLT-4 = details: MOLT-4
COLO 205 = details: COLO 205
OVCAR-5 = details: OVCAR-5
SR = details: SR
NCI-H23 = details: NCI-H23
K-562 = details: K-562
RPMI-8226 = details: RPMI-8226
[1] = Homo sapiens, five dose, read-out: LC50 (the source's name)

O=c1c2cc(Cl)ccc2sc2c(NCc3ccccc3)nc3ccccc3c12 [Compound N25, 6-(Benzylamino)-10-chloro-12H-thiochromeno[2,3-c]quinolin-12-one]
GI50 (OVCAR-8; Homo sapiens, five dose): 7.75 µM | CC50 (OVCAR-8; [1]): > 100 µM | Growth percent (OVCAR-8; 10^−5 molar): 68.33% | TGI (OVCAR-8; five dose): >100 µM | Growth percent (A498; 10^−5 molar): 86.46% | TGI (A498; five dose): 39.20 µM | GI50 (A498; Homo sapiens, five dose): 8.05 µM | CC50 (A498; [1]): > 100 µM | LC50 (SW-620; Homo sapiens, five dose): > 100 µM | Growth percent (SW-620; 10^−5 molar): 78.97% | TGI (SW-620; five dose): >100 µM | Growth percent (HS 578T; 10^−5 molar): 34.73% | TGI (HS 578T; five dose): 21.20 µM | GI50 (HS 578T; Homo sapiens, five dose): 2.94 µM | CC50 (HS 578T; [1]): > 100 µM | GI50 (SF-295; Homo sapiens, five dose): 3.5 µM | LC50 (SF-295; Homo sapiens, five dose): > 100 µM | Growth percent (SF-295; 10^−5 molar): 74.33% | TGI (SF-295; five dose): 16.50 µM | GI50 (MDA-MB-486; 60 cell, five dose): 0.03 µM | CC50 (MDA-MB-486; 60 cell, five dose, read-out: LC50 (the source's name)): 63.1 µM | Growth percent (MDA-MB-486; 10^−5 molar): −9.83% | TGI (MDA-MB-486; five dose): 0.66 µM | GI50 (MDA-MB-435; Homo sapiens, five dose): > 100 µM | CC50 (MDA-MB-435; [1]): > 100 µM | Growth percent (MDA-MB-435; 10^−5 molar): 89.58% | TGI (MDA-MB-435; five dose): >100 µM | GI50 (NCI-H522; Homo sapiens, five dose): 25.3 µM | LC50 (concentration causing 50% net cell kill) (NCI-H522; Homo sapiens, five dose): > 100 µM | Growth percent (NCI-H522; 10^−5 molar): 75.71% | TGI (NCI-H522; five dose): >100 µM | Growth percent (HT29; 10^−5 molar): 77.16% | TGI (HT29; five dose): >100 µM | LC50 (concentration killing 50% of cells) (HT29; Homo sapiens, HT-29, five dose): > 100 µM | Growth percent (BT-549; 10^−5 molar): 97.19% | TGI (BT-549; five dose): >100 µM | GI50 (BT-549; Homo sapiens, five dose): 20.5 µM | CC50 (BT-549; [1]): > 100 µM | Growth percent (DU-145; 10^−5 molar): 74.80% | TGI (DU-145; five dose): >100 µM | GI50 (DU-145; Homo sapiens, five dose): 5.5 µM | CC50 (DU-145; [1]): > 100 µM | GI50 (SN12C; Homo sapiens, five dose): 24.9 µM | CC50 (SN12C; [1]): > 100 µM | Growth percent (SN12C; 10^−5 molar): 87.80% | TGI (SN12C; five dose): >100 µM | GI50 (NCI-H460; Homo sapiens, five dose): 5 µM | LC50 (NCI-H460; Homo sapiens, five dose): > 100 µM | Growth percent (NCI-H460; 10^−5 molar): 64.41% | TGI (NCI-H460; five dose): >100 µM | GI50 (SNB-19; Homo sapiens, five dose): 8.56 µM | LC50 (concentration killing 50% of cells) (SNB-19; Homo sapiens, five dose): > 100 µM | Growth percent (SNB-19; 10^−5 molar): 102.93% | TGI (SNB-19; five dose): >100 µM | GI50 (UACC-62; Homo sapiens, five dose): 16.9 µM | CC50 (UACC-62; [1]): > 100 µM | Growth percent (UACC-62; 10^−5 molar): 89.20% | TGI (UACC-62; five dose): >100 µM | Growth percent (CCRF-CEM; 10^−5 molar): 102.34% | TGI (CCRF-CEM; five dose): >100 µM | GI50 (CCRF-CEM; Homo sapiens, five dose): > 100 µM | CC50 (CCRF-CEM; [1]): > 100 µM | GI50 (MCF7; Homo sapiens, five dose): 0.04 µM | CC50 (MCF7; [1]): > 100 µM | Growth percent (MCF7; 10^−5 molar): 16.01% | TGI (MCF7; five dose): 18.60 µM | GI50 (TK-10; Homo sapiens, five dose): 5.02 µM | CC50 (TK-10; [1]): > 100 µM | Growth percent (TK-10; 10^−5 molar): 75.80% | TGI (TK-10; five dose): 22.30 µM | Growth percent (HCT-15; 10^−5 molar): 71.76% | TGI (HCT-15; five dose): >100 µM | GI50 (HCT-15; Homo sapiens, five dose): 8.75 µM | LC50 (HCT-15; Homo sapiens, five dose): > 100 µM | GI50 (T-47D; Homo sapiens, T47D, five dose): 1.26 µM | CC50 (T-47D; Homo sapiens, T47D, five dose, read-out: LC50 (the source's name)): > 100 µM | Growth percent (T-47D; 10^−5 molar): 38.08% | TGI (T-47D; five dose): 7.11 µM | Growth percent (786-0; 10^−5 molar): 72.48% | TGI (786-0; five dose): 48.70 µM | GI50 (786-0; Homo sapiens, five dose): 9.55 µM | CC50 (786-0; [1]): > 100 µM | GI50 (PC-3; Homo sapiens, five dose): 56.9 µM | CC50 (PC-3; [1]): > 100 µM | Growth percent (PC-3; 10^−5 molar): 72.70% | TGI (PC-3; five dose): >100 µM | GI50 (M14; Homo sapiens, five dose): > 100 µM | LC50 (M14; Homo sapiens, five dose): > 100 µM | Growth percent (M14; 10^−5 molar): 87.29% | TGI (M14; five dose): >100 µM | GI50 (LOX IMVI; Homo sapiens): > 100 µM | LC50 (LOX IMVI; Homo sapiens): > 100 µM | TGI (LOX IMVI): >100 µM | GI50 (60 cancer cell lines; 60 cell, mean over panel, five dose): 11.2 µM | CC50 (60 cancer cell lines; 60 cell, mean over panel, five dose, read-out: LC50, Mean): 91.2 µM | Growth percent, Delta (60 cancer cell lines; delta over panel, 10^−5 molar): 81.80% | Growth percent, Mean (60 cancer cell lines; mean over panel, 10^−5 molar): 71.97% | TGI, Mean (60 cancer cell lines; mean over panel, five dose): 53.70 µM | Growth percent, Range (60 cancer cell lines; range over panel, 10^−5 molar): 112.76% | Growth percent (A549/ATCC; 10^−5 molar): 68.33% | TGI (A549/ATCC; five dose): >100 µM | GI50 (A549/ATCC; Homo sapiens, five dose): 14.4 µM | LC50 (A549/ATCC; Homo sapiens, five dose): > 100 µM | GI50 (UO-31; Homo sapiens, five dose): 57.8 µM | CC50 (UO-31; [1]): > 100 µM | Growth percent (UO-31; 10^−5 molar): 65.31% | TGI (UO-31; five dose): >100 µM | LC50 (SK-MEL-28; Homo sapiens, five dose): > 100 µM | Growth percent (SK-MEL-28; 10^−5 molar): 84.20% | TGI (SK-MEL-28; five dose): >100 µM | GI50 (SNB-75; Homo sapiens, five dose): 1.45 µM | LC50 (SNB-75; Homo sapiens, five dose): 9.91 µM | Growth percent (SNB-75; 10^−5 molar): 14.83% | TGI (SNB-75; five dose): 3.78 µM | GI50 (MALME-3M; Homo sapiens, five dose): > 100 µM | LC50 (MALME-3M; Homo sapiens, five dose): > 100 µM | Growth percent (MALME-3M; 10^−5 molar): 77.59% | TGI (MALME-3M; five dose): >100 µM | Growth percent (RXF 393): 71.08% | Growth percent (HL-60(TB)): 98.82% | GI50 (MOLT-4; Homo sapiens, five dose): > 100 µM | CC50 (MOLT-4; [1]): > 100 µM | Growth percent (MOLT-4; 10^−5 molar): 92.42% | TGI (MOLT-4; five dose): >100 µM | Growth percent (COLO 205; 10^−5 molar): 80.79% | TGI (COLO 205; five dose): >100 µM | LC50 (COLO 205; Homo sapiens, five dose): > 100 µM | GI50 (OVCAR-5; Homo sapiens, five dose): > 100 µM | CC50 (OVCAR-5; [1]): > 100 µM | Growth percent (OVCAR-5; 10^−5 molar): 91.27% | TGI (OVCAR-5; five dose): >100 µM | GI50 (SR; Homo sapiens, five dose): > 100 µM | LC50 (50% lethal concentration) (SR; Homo sapiens, five dose): > 100 µM | Growth percent (SR; 10^−5 molar): 85.46% | TGI (SR; five dose): >100 µM | GI50 (NCI-H23; Homo sapiens, five dose): 15.2 µM | LC50 (lethal concentration 50%) (NCI-H23; Homo sapiens, five dose): > 100 µM | Growth percent (NCI-H23; 10^−5 molar): 74.37% | TGI (NCI-H23; five dose): >100 µM | GI50 (K-562; Homo sapiens, K562, five dose): > 100 µM | CC50 (K-562; Homo sapiens, K562, five dose, read-out: LC50 (the source's name)): > 100 µM | Growth percent (K-562; 10^−5 molar): 90.61% | TGI (K-562; five dose): >100 µM | GI50 (RPMI-8226; Homo sapiens, five dose): > 100 µM | CC50 (RPMI-8226; [1]): > 100 µM | Growth percent (RPMI-8226; 10^−5 molar): 88.54% | TGI (RPMI-8226; five dose): >100 µM
